Biological target: human FXR (NR1H4) (Homo sapiens (Human), UniProt Q96RI1)
Experiment: Human FXR (NR1H4) Assay (luciferase reporter, Indigo Bioscience kit); for Efficacy (%): efficacy normalized to CDCA set as 100%
Assay type: cell-based
Settings: for EC50: FXR agonistic potency range, CHO reporter cells expressing human NR1H4, 22 hours incubation; for Emax: read-out: Efficacy (%)
Source text: Assays Human FXR (NR1H4) Assay
Determination of a ligand mediated Gal4 promoter driven transactivation to quantify ligand binding mediated activation of FXR. FXR Reporter Assay kit purchased from Indigo Bioscience (Catalogue number: IB00601) to determine the potency and efficacy of compound developed by Enanta that can induce FXR activation. The principle application of this reporter assay system is to quantify functional activity of human FXR. The assay utilizes non-human mammalian cells, CHO (Chinese hamster ovary) cells engineered to express human NR1H4 protein (referred to as FXR). Reporter cells also incorporate the cDNA encoding beetle luciferase which catalyzes the substrates and yields photon emission. Luminescence intensity of the reaction is quantified using a plate-reading luminometer, Envision. Reporter Cells include the luciferase reporter gene functionally linked to an FXR responsive promoter. Thus, quantifying changes in luciferase expression in the treated reporter cells provides a sensitive surrogate measure of the changes in FXR activity. […] The assay is according to the manufacturer's instructions. In brief, the assay was performed in white, 96 well plates using final volume of 100 ul containing cells with different doses of compounds. Retrieve Reporter Cells from −80° C. storage. Perform a rapid thaw of the frozen cells by transferring a 10 ml volume of 37° C. cell recovery medium into the tube of frozen cells. Recap the tube of Reporter Cells and immediately place it in a 37° C. water bath for 5-10 minutes. Retrieve the tube of Reporter Cell Suspension from the water bath. Sanitize the outside surface of the tube with a 70% alcohol swab, and then transfer it into the cell culture hood. Dispense 90 μl of cell suspension into each well of the 96-well Assay Plate. Transfer the plate into 37° C. incubator, allowing the cells adherent to the bottom of the well. Dilute compounds in Dilution Plate (DP), and administrate to cells at Assay Plate (AP). DMSO content of the samples was kept at 0.2%. Cells were incubated for additional 22 hours before luciferase activities were measured. Thirty minutes before intending to quantify FXR activity, remove Detection Substrate and Detection Buffer from the refrigerator and place them in a low-light area so that they may equilibrate to room temperature. Remove the plate's lid and discard all media contents by ejecting it into an appropriate waste container. Gently tap the inverted plate onto a clean absorbent paper towel to remove residual droplets. Cells will remain tightly adhered to well bottoms. Add 100 μl of luciferase detection reagent to each well of the assay plate. Allow the assay plate to rest at room temperature for at least 5 minutes following the addition of LDR. Set the instrument (Envision) to perform a single 5 second “plate shake” prior to reading the first assay well. Read time may be 0.5 second (500 mSec) per well.

Chain of human FXR (NR1H4) (Q96RI1 whole entry): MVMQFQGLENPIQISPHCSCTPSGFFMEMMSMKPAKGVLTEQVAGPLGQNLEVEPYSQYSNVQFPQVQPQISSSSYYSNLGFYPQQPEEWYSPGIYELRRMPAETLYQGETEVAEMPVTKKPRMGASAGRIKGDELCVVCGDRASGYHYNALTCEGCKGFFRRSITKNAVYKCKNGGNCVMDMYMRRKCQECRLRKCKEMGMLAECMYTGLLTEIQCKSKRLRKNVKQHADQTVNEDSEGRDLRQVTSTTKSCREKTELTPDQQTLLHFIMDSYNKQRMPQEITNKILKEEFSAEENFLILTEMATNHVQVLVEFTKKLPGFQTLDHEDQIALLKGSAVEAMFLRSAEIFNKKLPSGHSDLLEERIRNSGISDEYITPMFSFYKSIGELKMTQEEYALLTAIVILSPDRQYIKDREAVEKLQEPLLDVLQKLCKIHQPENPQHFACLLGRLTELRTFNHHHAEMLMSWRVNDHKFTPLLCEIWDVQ

Row | Compound | EC50 | Emax
1 | CC[C@H]1[C@@H](O)[C@@H]2[C@H](CC[C@]3(C)[C@@H]([C@H](C)C/C=C/c4ccccc4C(=O)OC)CC[C@@H]23)[C@@]2(C)CC[C@@H](O)C[C@@H]12 [Example 1] | 1000 to 10000 nM | 217%
2 | CC[C@H]1[C@@H](O)[C@@H]2[C@H](CC[C@]3(C)[C@@H]([C@H](C)C/C=C/c4ccccc4C(=O)O)CC[C@@H]23)[C@@]2(C)CC[C@@H](O)C[C@@H]12 [Example 2] | < 100 nM | 313%
3 | CC[C@H]1[C@@H](O)[C@@H]2[C@H](CC[C@]3(C)[C@@H]([C@H](C)CCCc4ccccc4C(=O)O)CC[C@@H]23)[C@@]2(C)CC[C@@H](O)C[C@@H]12 [Example 3] | 100 to 1000 nM | 352%
4 | CC[C@H]1[C@@H](O)[C@@H]2[C@H](CC[C@]3(C)[C@@H]([C@H](C)CC=Cc4cc(F)c(O)c(F)c4)CC[C@@H]23)[C@@]2(C)CC[C@@H](O)C[C@@H]12 [Example 4] | 100 to 1000 nM | 298%
5 | CC[C@H]1[C@@H](O)[C@@H]2[C@H](CC[C@]3(C)[C@@H]([C@H](C)CCCc4cc(F)c(O)c(F)c4)CC[C@@H]23)[C@@]2(C)CC[C@@H](O)C[C@@H]12 [Example 5] | 1000 to 10000 nM | 271%
6 | CC[C@H]1[C@@H](O)[C@@H]2[C@H](CC[C@]3(C)[C@@H]([C@H](C)Cc4nc5c(C(=O)OC)cccc5o4)CC[C@@H]23)[C@@]2(C)CC[C@@H](O)C[C@@H]12 [Example 6] | 1000 to 10000 nM | 131%
7 | CC[C@H]1[C@@H](O)[C@@H]2[C@H](CC[C@]3(C)[C@@H]([C@H](C)Cc4nc5c(C(=O)O)cccc5o4)CC[C@@H]23)[C@@]2(C)CC[C@@H](O)C[C@@H]12 [Example 7] | 100 to 1000 nM | 195%
8 | CC[C@H]1[C@@H](O)[C@@H]2[C@H](CC[C@]3(C)[C@@H]([C@H](C)CCCn4nnc(CC(=O)O)n4)CC[C@@H]23)[C@@]2(C)CC[C@@H](O)C[C@@H]12 [Example 8] | 1000 to 10000 nM | 29%
9 | CC[C@H]1[C@@H](O)[C@@H]2[C@H](CC[C@]3(C)[C@@H]([C@H](C)CCCn4nnnc4CC(=O)O)CC[C@@H]23)[C@@]2(C)CC[C@@H](O)C[C@@H]12 [Example 9] | 1000 to 10000 nM | 172%
10 | CC[C@H]1[C@@H](O)[C@@H]2[C@H](CC[C@]3(C)[C@@H]([C@H](C)CC4CC4c4ccccc4C(=O)O)CC[C@@H]23)[C@@]2(C)CC[C@@H](O)C[C@@H]12 (some centres unmarked) [Example 10] | 100 to 1000 nM | 252%
11 | CC[C@H]1[C@@H](O)[C@@H]2[C@H](CC[C@]3(C)[C@@H]([C@H](C)CCOc4ccccc4C(=O)O)CC[C@@H]23)[C@@]2(C)CC[C@@H](O)C[C@@H]12 [Example 11] |  | 388%
12 | CC[C@H]1[C@@H](O)[C@@H]2[C@H](CC[C@]3(C)[C@@H]([C@H](C)C/C=C/c4ccc(C(=O)OC)c(O)c4)CC[C@@H]23)[C@@]2(C)CC[C@@H](O)C[C@@H]12 [Example 12] | 1000 to 10000 nM | 134%
13 | CC[C@H]1[C@@H](O)[C@@H]2[C@H](CC[C@]3(C)[C@@H]([C@H](C)C/C=C/c4ccc(C(=O)O)c(O)c4)CC[C@@H]23)[C@@]2(C)CC[C@@H](O)C[C@@H]12 [Example 13] | 100 to 1000 nM | 166%
14 | CC[C@H]1[C@@H](O)[C@@H]2[C@H](CC[C@]3(C)[C@@H]([C@H](C)CCCc4ccc(C(=O)O)c(O)c4)CC[C@@H]23)[C@@]2(C)CC[C@@H](O)C[C@@H]12 [Example 14] | 1000 to 10000 nM | 232%
15 | CC[C@H]1[C@@H](O)[C@@H]2[C@H](CC[C@]3(C)[C@@H]([C@H](C)C/C=C/c4ccc(C(C)C(=O)OC)cc4)CC[C@@H]23)[C@@]2(C)CC[C@@H](O)C[C@@H]12 (some centres unmarked) [Example 15] | 1000 to 10000 nM | 40%
16 | CC[C@H]1[C@@H](O)[C@@H]2[C@H](CC[C@]3(C)[C@@H]([C@H](C)C/C=C/c4ccc(C(C)C(=O)O)cc4)CC[C@@H]23)[C@@]2(C)CC[C@@H](O)C[C@@H]12 (some centres unmarked) [Example 16] | 1000 to 10000 nM | 248%
17 | CC[C@H]1[C@@H](O)[C@@H]2[C@H](CC[C@]3(C)[C@@H]([C@H](C)CCCc4ccc(C(C)C(=O)O)cc4)CC[C@@H]23)[C@@]2(C)CC[C@@H](O)C[C@@H]12 (some centres unmarked) [Example 17] | 1000 to 10000 nM | 261%
18 | CC[C@H]1[C@@H](O)[C@@H]2[C@H](CC[C@]3(C)[C@@H]([C@H](C)C/C=C/c4ccc(C(=O)OC)cc4)CC[C@@H]23)[C@@]2(C)CC[C@@H](O)C[C@@H]12 [Example 18] | 1000 to 10000 nM | 113%
19 | CC[C@H]1[C@@H](O)[C@@H]2[C@H](CC[C@]3(C)[C@@H]([C@H](C)C/C=C/c4ccc(C(=O)O)cc4)CC[C@@H]23)[C@@]2(C)CC[C@@H](O)C[C@@H]12 [Example 19] | 100 to 1000 nM | 244%
20 | CC[C@H]1[C@@H](O)[C@@H]2[C@H](CC[C@]3(C)[C@@H]([C@H](C)CCCc4ccc(C(=O)O)cc4)CC[C@@H]23)[C@@]2(C)CC[C@@H](O)C[C@@H]12 [Example 20] | 1000 to 10000 nM | 266%
21 | CC[C@H]1[C@@H](O)[C@@H]2[C@H](CC[C@]3(C)[C@@H]([C@H](C)C/C=C/c4cccc(C(=O)OC)c4)CC[C@@H]23)[C@@]2(C)CC[C@@H](O)C[C@@H]12 [Example 21] | 1000 to 10000 nM | 92%
22 | CC[C@H]1[C@@H](O)[C@@H]2[C@H](CC[C@]3(C)[C@@H]([C@H](C)C/C=C/c4cccc(C(=O)O)c4)CC[C@@H]23)[C@@]2(C)CC[C@@H](O)C[C@@H]12 [Example 22] | 1000 to 10000 nM | 195%
23 | CC[C@H]1[C@@H](O)[C@@H]2[C@H](CC[C@]3(C)[C@@H]([C@H](C)CCCc4cccc(C(=O)O)c4)CC[C@@H]23)[C@@]2(C)CC[C@@H](O)C[C@@H]12 [Example 23] | 1000 to 10000 nM | 292%
24 | CC[C@H]1[C@@H](O)[C@@H]2[C@H](CC[C@]3(C)[C@@H]([C@H](C)C/C=C/c4ccc(-c5nnn[nH]5)cc4)CC[C@@H]23)[C@@]2(C)CC[C@@H](O)C[C@@H]12 [Example 24] | 1000 to 10000 nM | 234%
25 | CC[C@H]1[C@@H](O)[C@@H]2[C@H](CC[C@]3(C)[C@@H]([C@H](C)C/C=C/c4ccc(F)cc4C(=O)O)CC[C@@H]23)[C@@]2(C)CC[C@@H](O)C[C@@H]12 [Example 25] |  | 376%
26 | CC[C@H]1[C@@H](O)[C@@H]2[C@H](CC[C@]3(C)[C@@H]([C@H](C)CCCc4ccc(F)cc4C(=O)O)CC[C@@H]23)[C@@]2(C)CC[C@@H](O)C[C@@H]12 [Example 26] | 100 to 1000 nM | 256%
27 | CC[C@H]1[C@@H](O)[C@@H]2[C@H](CC[C@]3(C)[C@@H]([C@H](C)C/C=C/c4cnccc4C(=O)OC)CC[C@@H]23)[C@@]2(C)CC[C@@H](O)C[C@@H]12 [Example 27] | 1000 to 10000 nM | 296%
28 | CC[C@H]1[C@@H](O)[C@@H]2[C@H](CC[C@]3(C)[C@@H]([C@H](C)C/C=C/c4cnccc4C(=O)O)CC[C@@H]23)[C@@]2(C)CC[C@@H](O)C[C@@H]12 [Example 28] | 100 to 1000 nM | 300%
29 | CC[C@H]1[C@@H](O)[C@@H]2[C@H](CC[C@]3(C)[C@@H]([C@H](C)C/C=C/c4ccccc4C#N)CC[C@@H]23)[C@@]2(C)CC[C@@H](O)C[C@@H]12 [Example 29] | 1000 to 10000 nM | 210%
